{"source": "PubChem BioAssay AID248", "about": "(DTP/NCI, 2004)", "test_system": "L1210 leukemia ip in BDF1 mice, survival T/C", "experiment": "NCI In Vivo Anticancer Drug Screen. Data for tumor model L1210 Leukemia (intraperitoneal) in B6D2F1 (BDF1) mice", "conditions": "endpoint: mean survival time, higher = longer survival", "outline": "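Read-out is survival time, reported as the treated-group measurement over the vehicle-control measurement.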", "key": {"[1]": {"conditions": "dose: 100.0 mg/kg/injection, schedule: Q01DX009 (ip), vehicle: saline with Tween-80"}, "[2]": {"conditions": "dose: 200.0 mg/kg/injection, schedule: Q01DX009 (ip), vehicle: saline with Tween-80"}, "[3]": {"conditions": "dose: 400.0 mg/kg/injection, schedule: Q01DX009 (ip), vehicle: saline with Tween-80"}, "[4]": {"conditions": "dose: 100.0 mg/kg/injection, schedule: Q04DX003 (ip), vehicle: saline with Tween-80"}, "[5]": {"conditions": "dose: 50.0 mg/kg/injection, schedule: Q01DX001 (ip), vehicle: carboxymethylcellulose (CMC)"}, "[6]": {"conditions": "dose: 100.0 mg/kg/injection, schedule: Q01DX001 (ip), vehicle: carboxymethylcellulose (CMC)"}, "[7]": {"conditions": "dose: 200.0 mg/kg/injection, schedule: Q01DX001 (ip), vehicle: carboxymethylcellulose (CMC)"}, "[8]": {"conditions": "dose: 400.0 mg/kg/injection, schedule: Q01DX001 (ip), vehicle: carboxymethylcellulose (CMC)"}, "[9]": {"conditions": "dose: 100.0 mg/kg/injection, schedule: Q01DX009 (ip), vehicle: gum acacia"}, "[10]": {"conditions": "dose: 200.0 mg/kg/injection, schedule: Q01DX009 (ip), vehicle: gum acacia"}, "[11]": {"conditions": "dose: 200.0 mg/kg/injection, schedule: Q01DX009 (ip), vehicle: Klucel (hydroxypropylcellulose) (HPC)"}, "[12]": {"conditions": "dose: 400.0 mg/kg/injection, schedule: Q01DX009 (ip), vehicle: Klucel (hydroxypropylcellulose) (HPC)"}}, "note": "Values joined by “and” are separate entries in the source; they are usually repeats but may differ in a detail not shown here. Equal values may be shown once. Inconclusive results and toxic doses are left out.", "data": [{"smiles": "COc1cc(Br)c2c(c1OC)C1(CC[N+](C)(C)C)CC(=O)CCC1CC2", "note": "(configuration not stated)", "values": [{"measurement": "T/C", "setting": "dose: 12.5 mg/kg/injection, schedule: Q01DX001 (ip), vehicle: saline", "value": "97 % of control"}, {"measurement": "T/C", "setting": "dose: 25.0 mg/kg/injection, schedule: Q01DX001 (ip), vehicle: saline", "value": "97 % of control"}, {"measurement": "T/C", "setting": "dose: 50.0 mg/kg/injection, schedule: Q01DX001 (ip), vehicle: saline", "value": "94 % of control"}, {"measurement": "T/C", "setting": "dose: 100.0 mg/kg/injection, schedule: Q01DX001 (ip), vehicle: saline", "value": "97 % of control"}]}, {"smiles": "COC(=O)[C@@H]1C2C=CC(C2)[C@@H]1C(=O)OC", "values": [{"measurement": "T/C", "setting": "[1]", "value": "101 % of control"}, {"measurement": "T/C", "setting": "[2]", "value": "104 % of control"}, {"measurement": "T/C", "setting": "[3]", "value": "104 % of control"}]}, {"smiles": "Cc1cc(=O)[nH]c(N(CCO)CCO)n1", "values": [{"measurement": "T/C", "setting": "[1]", "value": "92 % of control"}, {"measurement": "T/C", "setting": "[4]", "value": "94 % of control"}, {"measurement": "T/C", "setting": "[2]", "value": "100 % of control"}, {"measurement": "T/C", "setting": "dose: 200.0 mg/kg/injection, schedule: Q04DX003 (ip), vehicle: saline with Tween-80", "value": "96 % of control"}, {"measurement": "T/C", "setting": "[3]", "value": "100 % of control"}, {"measurement": "T/C", "setting": "dose: 400.0 mg/kg/injection, schedule: Q04DX003 (ip), vehicle: saline with Tween-80", "value": "100 % of control"}]}, {"smiles": "OCCCc1cc(Br)ccc1O", "values": [{"measurement": "T/C", "setting": "[5]", "value": "105 % of control"}, {"measurement": "T/C", "setting": "[6]", "value": "100 % of control"}, {"measurement": "T/C", "setting": "[7]", "value": "100 % of control"}, {"measurement": "T/C", "setting": "[8]", "value": "92 % of control"}]}, {"smiles": "C(=N\\N=C\\c1c[nH]c2ccccc12)/c1c[nH]c2ccccc12", "values": [{"measurement": "T/C", "setting": "[9]", "value": "87 % of control"}, {"measurement": "T/C", "setting": "dose: 100.0 mg/kg/injection, schedule: Q04DX003 (ip), vehicle: gum acacia", "value": "92 % of control"}, {"measurement": "T/C", "setting": "[10]", "value": "87 % of control"}, {"measurement": "T/C", "setting": "dose: 200.0 mg/kg/injection, schedule: Q04DX003 (ip), vehicle: gum acacia", "value": "89 % of control"}, {"measurement": "T/C", "setting": "dose: 400.0 mg/kg/injection, schedule: Q01DX009 (ip), vehicle: gum acacia", "value": "86 % of control"}, {"measurement": "T/C", "setting": "dose: 400.0 mg/kg/injection, schedule: Q04DX003 (ip), vehicle: gum acacia", "value": "89 % of control"}]}, {"smiles": "CCC(C(C)C)C(Br)C(Br)C(C)C1CCC2C3CC=C4CC(OC(C)=O)CCC4(C)C3CCC12C", "note": "(configuration not stated)", "values": [{"measurement": "T/C", "setting": "[11]", "value": "91 % of control"}, {"measurement": "T/C", "setting": "[12]", "value": "96 % of control"}]}, {"smiles": "OB(O)c1ccccc1", "values": [{"measurement": "T/C", "setting": "[9]", "value": "105 % of control"}, {"measurement": "T/C", "setting": "[10]", "value": "99 % of control"}]}, {"smiles": "O=C(NC1CCCCC1)C1COc2ccccc2O1", "note": "(configuration not stated)", "values": [{"measurement": "T/C", "setting": "dose: 100.0 mg/kg/injection, schedule: Q01DX001 (ip), vehicle: Klucel (hydroxypropylcellulose) (HPC)", "value": "98 % of control"}, {"measurement": "T/C", "setting": "dose: 100.0 mg/kg/injection, schedule: Q01DX009 (ip), vehicle: Klucel (hydroxypropylcellulose) (HPC)", "value": "95 % of control"}, {"measurement": "T/C", "setting": "dose: 200.0 mg/kg/injection, schedule: Q01DX001 (ip), vehicle: Klucel (hydroxypropylcellulose) (HPC)", "value": "108 % of control"}, {"measurement": "T/C", "setting": "[11]", "value": "93 % of control"}, {"measurement": "T/C", "setting": "dose: 400.0 mg/kg/injection, schedule: Q01DX001 (ip), vehicle: Klucel (hydroxypropylcellulose) (HPC)", "value": "98 % of control"}, {"measurement": "T/C", "setting": "[12]", "value": "97 % of control"}]}, {"smiles": "O=C(Nc1ccc(C(=O)O)cc1)Nc1cc(C(F)(F)F)ccc1Cl", "values": [{"measurement": "T/C", "setting": "[6]", "value": "93 % of control"}, {"measurement": "T/C", "setting": "dose: 100.0 mg/kg/injection, schedule: Q01DX009 (ip), vehicle: carboxymethylcellulose (CMC)", "value": "95 % of control and 110 % of control"}, {"measurement": "T/C", "setting": "dose: 100.0 mg/kg/injection, schedule: Q04DX002 (ip), vehicle: carboxymethylcellulose (CMC)", "value": "95 % of control and 97 % of control"}, {"measurement": "T/C", "setting": "dose: 100.0 mg/kg/injection, schedule: Q04DX003 (ip), vehicle: carboxymethylcellulose (CMC)", "value": "94 % of control"}, {"measurement": "T/C", "setting": "[7]", "value": "93 % of control"}, {"measurement": "T/C", "setting": "dose: 200.0 mg/kg/injection, schedule: Q01DX009 (ip), vehicle: carboxymethylcellulose (CMC)", "value": "100 % of control and 90 % of control"}, {"measurement": "T/C", "setting": "dose: 200.0 mg/kg/injection, schedule: Q04DX002 (ip), vehicle: carboxymethylcellulose (CMC)", "value": "93 % of control and 97 % of control"}, {"measurement": "T/C", "setting": "dose: 200.0 mg/kg/injection, schedule: Q04DX003 (ip), vehicle: carboxymethylcellulose (CMC)", "value": "97 % of control"}, {"measurement": "T/C", "setting": "[8]", "value": "93 % of control"}, {"measurement": "T/C", "setting": "dose: 400.0 mg/kg/injection, schedule: Q01DX009 (ip), vehicle: carboxymethylcellulose (CMC)", "value": "92 % of control"}, {"measurement": "T/C", "setting": "dose: 400.0 mg/kg/injection, schedule: Q04DX002 (ip), vehicle: carboxymethylcellulose (CMC)", "value": "96 % of control and 90 % of control"}, {"measurement": "T/C", "setting": "dose: 400.0 mg/kg/injection, schedule: Q04DX003 (ip), vehicle: carboxymethylcellulose (CMC)", "value": "96 % of control"}]}, {"smiles": "CCNCCCNCC(Cc1ccccc1)c1ccccc1", "note": "(configuration not stated)", "values": [{"measurement": "T/C", "setting": "dose: 100.0 mg/kg/injection, schedule: Q04DX002 (ip), vehicle: saline", "value": "102 % of control"}]}, {"smiles": "NC(=NCc1ccccc1)c1ccc(N=C(N)c2ccc(C(N)=Nc3ccc(C(N)=NCc4ccccc4)cc3)cc2)cc1", "values": [{"measurement": "T/C", "setting": "dose: 5.0 mg/kg/injection, schedule: Q01DX001 (ip), vehicle: water", "value": "95 % of control"}, {"measurement": "T/C", "setting": "dose: 6.25 mg/kg/injection, schedule: Q01DX009 (ip), vehicle: saline", "value": "119 % of control"}, {"measurement": "T/C", "setting": "dose: 10.0 mg/kg/injection, schedule: Q01DX001 (ip), vehicle: water", "value": "96 % of control"}, {"measurement": "T/C", "setting": "dose: 12.5 mg/kg/injection, schedule: Q01DX009 (ip), vehicle: saline", "value": "153 % of control"}, {"measurement": "T/C", "setting": "dose: 12.5 mg/kg/injection, schedule: Q01DX015 (oral), vehicle: water", "value": "95 % of control"}, {"measurement": "T/C", "setting": "dose: 15.0 mg/kg/injection, schedule: Q01DX001 (ip), vehicle: water", "value": "98 % of control"}, {"measurement": "T/C", "setting": "dose: 18.0 mg/kg/injection, schedule: Q01DX015 (ip), vehicle: water", "value": "249 % of control"}, {"measurement": "T/C", "setting": "dose: 20.0 mg/kg/injection, schedule: Q01DX001 (ip), vehicle: water", "value": "107 % of control"}, {"measurement": "T/C", "setting": "dose: 25.0 mg/kg/injection, schedule: Q01DX009 (ip), vehicle: saline", "value": "114 % of control"}, {"measurement": "T/C", "setting": "dose: 25.0 mg/kg/injection, schedule: Q01DX015 (ip), vehicle: water", "value": "222 % of control and 256 % of control"}, {"measurement": "T/C", "setting": "dose: 25.0 mg/kg/injection, schedule: Q01DX015 (oral), vehicle: water", "value": "91 % of control"}, {"measurement": "T/C", "setting": "dose: 50.0 mg/kg/injection, schedule: Q01DX015 (oral), vehicle: water", "value": "98 % of control"}, {"measurement": "T/C", "setting": "dose: 100.0 mg/kg/injection, schedule: Q01DX015 (oral), vehicle: water", "value": "98 % of control"}]}, {"smiles": "O=C(O)c1ccccc1N=Cc1ccc(N(CCCl)CCCl)cc1", "values": [{"measurement": "T/C", "setting": "[5]", "value": "103 % of control"}, {"measurement": "T/C", "setting": "[6]", "value": "122 % of control"}, {"measurement": "T/C", "setting": "[7]", "value": "114 % of control"}, {"measurement": "T/C", "setting": "[8]", "value": "111 % of control"}]}, {"smiles": "COc1cccc(N=CC(=O)c2ccc(C)cc2)c1", "values": [{"measurement": "T/C", "setting": "dose: 75.0 mg/kg/injection, schedule: Q04DX003 (ip), vehicle: Klucel (hydroxypropylcellulose) (HPC)", "value": "95 % of control"}, {"measurement": "T/C", "setting": "dose: 150.0 mg/kg/injection, schedule: Q04DX003 (ip), vehicle: Klucel (hydroxypropylcellulose) (HPC)", "value": "89 % of control"}]}, {"smiles": "N#CC(C#N)=C1Cc2ccccc2C1", "values": [{"measurement": "T/C", "setting": "dose: 50.0 mg/kg/injection, schedule: Q04DX003 (ip), vehicle: saline with Tween-80", "value": "109 % of control"}, {"measurement": "T/C", "setting": "[4]", "value": "109 % of control"}]}]}
